# Values of other authors as cited in patent US20070184105A1, “COMSPOSITION FOR STABLIZING EPIGALLOCATECHIN GALLATE (EGCG) IN WATER PHASE AND PREPARATION METHOD THEREOF” (DPI SOLUTIONS, INC., priority 2004, published 2007).
compound,measurement,value
"O=C(O[C@@H]1Cc2c(O)cc(O)cc2O[C@@H]1c1cc(O)c(O)c(O)c1)c1cc(O)c(O)c(O)c1 [EGCG, epigallocatechin gallate]",amount of EGCG that can be dissolved in water phase,about 4%
